Results taken from US10576062B2, “Carbamoyloxymethyl triazole cyclohexyl acids as LPA antagonists” (Bristol-Myers Squibb Company, priority 2016, dated 2020).

What follows are compounds tested against T1, human LPA1 (Homo sapiens, UniProt Q92633) (assay: LPA1 functional antagonist assay (LPA-induced calcium flux)). Details: CHO cells overexpressing human LPA1; inhibition of calcium flux induced by 10 nM LPA; read-out: hLPA1 IC50.
T1 construct: expressed in transfected cells; host or cells: Chinese hamster ovary (CHO) cells
Type: cell-based
Procedure, shortened: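 CHO cells overexpressing human LPA1, loaded with calcium dye 30 min at 37° C, were preincubated 20 min at room temperature with compound (0.08 nM–5 μM, 0.5% DMSO) in HBSS/20 mM HEPES/0.1% fatty acid-free BSA.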

T1 sequence (Q92633 whole entry): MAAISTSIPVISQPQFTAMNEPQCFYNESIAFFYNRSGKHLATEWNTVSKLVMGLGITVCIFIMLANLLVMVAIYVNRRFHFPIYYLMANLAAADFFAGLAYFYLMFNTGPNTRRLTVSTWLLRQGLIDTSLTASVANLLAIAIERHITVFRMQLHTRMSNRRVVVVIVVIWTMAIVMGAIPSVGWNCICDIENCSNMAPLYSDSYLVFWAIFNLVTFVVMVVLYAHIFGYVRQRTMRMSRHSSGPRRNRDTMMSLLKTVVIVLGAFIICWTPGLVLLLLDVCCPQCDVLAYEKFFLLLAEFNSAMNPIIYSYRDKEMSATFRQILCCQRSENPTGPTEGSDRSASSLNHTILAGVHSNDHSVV

Structure (SMILES)	IC50 [nM]
Cc1nc(-c2nnn(C)c2COC(=O)N(C)CC2CCC2)ccc1O[C@H]1CCC[C@](F)(C(=O)O)C1 (racemic) [Example 11, (rac)-3-((6-(5-((((cyclobutylmethyl)(methyl)carbamoyl)oxy)methyl)-1-methyl-1H-1,2,3-triazol-4-yl)-2-methylpyridin-3-yl)oxy)-1-fluorocyclohexane-1-carboxylic Acid]	12
CN(C(=O)OCc1c(-c2ccc(O[C@H]3CCC[C@H](C(=O)O)C3)c(C(F)F)n2)nnn1C)C1CCCC1 [Example 281, (1S,3S)-3-((6-(5-(((cyclopentyl(methyl)carbamoyl)oxy)methyl)-1-methyl-1H-1,2,3-triazol-4-yl)-2-(difluoromethyl)pyridin-3-yl)oxy)cyclohexane-1-carboxylic acid]	35
CCCCN(C)C(=O)OCc1c(-c2ccc(O[C@H]3CCC[C@H](C(=O)O)C3)c(CC)n2)nnn1C [Example 199, (1S,3S)-3-((6-(5-(((butyl(methyl)carbamoyl)oxy)methyl)-1-methyl-1H-1,2,3-triazol-4-yl)-2-ethylpyridin-3-yl)oxy)cyclohexane-1-carboxylic acid]	7
CN(C(=O)OCc1c(-c2ccc(O[C@H]3CCC[C@H](C(=O)NS(C)(=O)=O)C3)cc2)nnn1C)C1CCCC1 [Example 7, (1-Methyl-4-(4-(((1S,3S)-3-((methylsulfonyl)carbamoyl)cyclohexyl)oxy)phenyl)-1H-1,2,3-triazol-5-yl)methyl cyclopentyl(methyl)carbamate]	3750
CN(CC1CCC1)C(=O)OCc1c(-c2ccc(O[C@H]3CCC[C@H](C(=O)O)C3)c(C(F)(F)F)n2)nnn1C [Example 269, (1S,3 S)-3-((6-(5-((((cyclobutylmethyl)(methyl)carbamoyl)oxy)methyl)-1-methyl-1H-1,2,3-triazol-4-yl)-2-(trifluoromethyl)pyridin-3-yl)oxy)cyclohexane-1-carboxylic Acid]	10
CN(C(=O)OCc1c(-c2ccc(O[C@H]3CCC[C@H](C(=O)O)C3)c(C#N)n2)nnn1C)C1CCC1 [Example 293, (1S,3S)-3-((2-cyano-6-(5-(((cyclobutyl(methyl)carbamoyl)oxy)methyl)-1-methyl-1H-1,2,3-triazol-4-yl)pyridin-3-yl)oxy)cyclohexane-1-carboxylic acid]	23
Cc1nc(-c2nnn(C)c2COC(=O)N(C)CCCF)cnc1O[C@H]1CCC[C@H](C(=O)O)C1 [Example 230, (1S,3S)-3-((5-(5-((((3-fluoropropyl)(methyl)carbamoyl)oxy)methyl)-1-methyl-1H-1,2,3-triazol-4-yl)-3-methylpyrazin-2-yl)oxy)cyclohexane-1-carboxylic acid]	390
CCc1nc(-c2nnn(C)c2COC(=O)N(C)CC(C)C)ccc1O[C@H]1CCC[C@H](C(=O)O)C1 [Example 197, (1S,3S)-3-((2-ethyl-6-(5-(((isobutyl(methyl)carbamoyl)oxy)methyl)-1-methyl-1H-1,2,3-triazol-4-yl)pyridin-3-yl)oxy)cyclohexane-1-carboxylic acid]	27
CN(CC1CC1)C(=O)OCc1c(-c2cnc(O[C@H]3CCC[C@H](C(=O)O)C3)c(C(F)(F)F)c2)nnn1C [Example 237, (1S,3S)-3-((5-(5-((((cyclopropylmethyl)(methyl)carbamoyl)oxy)methyl)-1-methyl-1H-1,2,3-triazol-4-yl)-3-(trifluoromethyl)pyridin-2-yl)oxy)cyclohexane-1-carboxylic acid]	2400
CCc1nc(-c2nnn(C)c2COC(=O)N2CC(C)(C)C2)ccc1O[C@H]1CCC[C@H](C(=O)O)C1 [Example 204, (1S,3S)-3-((6-(5-(((3,3-dimethylazetidine-1-carbonyl)oxy)methyl)-1-methyl-1H-1,2,3-triazol-4-yl)-2-ethylpyridin-3-yl)oxy)cyclohexane-1-carboxylic acid]	102

Next, values leading:

IC50 [nM]	Structure (SMILES)
314	CCCOCCN(C)C(=O)OCc1c(-c2ccc(O[C@H]3CCC[C@H](C(=O)O)C3)c(C)n2)nnn1C [Example 250, (1S,3S)-3-((2-methyl-6-(1-methyl-5-(((methyl(2-propoxyethyl)carbamoyl)oxy)methyl)-1H-1,2,3-triazol-4-yl)pyridin-3-yl)oxy)cyclohexane-1-carboxylic acid]
29	[2H]C([2H])([2H])N(CCC)C(=O)OCc1c(-c2ccc(O[C@H]3CCC[C@H](C(=O)O)C3)c(C)n2)nnn1C [Example 288, (1S,3S)-3-((2-methyl-6-(1-methyl-5-((((methyl-d3)(propyl)carbamoyl)oxy)methyl)-1H-1,2,3-triazol-4-yl)pyridin-3-yl)oxy)cyclohexane-1-carboxylic acid]
25	CCc1nc(-c2nnn(C)c2COC(=O)N(C)Cc2ccccc2)ccc1O[C@H]1CCC[C@H](C(=O)O)C1 [Example 201, (1S,3S)-3-((6-(5-(((benzyl(methyl)carbamoyl)oxy)methyl)-1-methyl-1H-1,2,3-triazol-4-yl)-2-ethylpyridin-3-yl)oxy)cyclohexane-1-carboxylic acid]

Same assay, conditions: human LPA1; read-out: hLPA1 IC50

IC50 [nM]	Structure (SMILES)
162	Cc1nc(-c2nnn(C)c2COC(=O)N2CCC3(CC2)CC3)ccc1O[C@H]1CCC[C@H](C(=O)O)C1 [Example 171, (1S,3S)-3-((6-(5-(((6-azaspiro[2.5]octane-6-carbonyl)oxy)methyl)-1-methyl-1H-1,2,3-triazol-4-yl)-2-methylpyridin-3-yl)oxy)cyclohexane-1-carboxylic acid]
32	Cc1nc(-c2nnn(C)c2COC(=O)N(C)C2CC3(CCC3)C2)ccc1O[C@H]1CCCC(C(=O)O)C1 (stereo in doubt) [Example 158, (1R,3S)-3-((2-methyl-6-(1-methyl-5-(((methyl(spiro[3.3]heptan-2-yl)carbamoyl)oxy)methyl)-1H-1,2,3-triazol-4-yl)pyridin-3-yl)oxy)cyclohexane-1-carboxylic acid]

Same assay, conditions: read-out: hLPA1 IC50

Structure (SMILES)	IC50 [nM]
CC(C)CCN(C)C(=O)OCc1c(-c2ccc(O[C@H]3CCC[C@H](C(=O)O)C3)c(F)c2)nnn1C [Example 47, (1S,3S)-3-(2-fluoro-4-(5-(((isopentyl(methyl)carbamoyl)oxy)methyl)-1-methyl-1H-1,2,3-triazol-4-yl)phenoxy)cyclohexane-1-carboxylic acid]	3
CN(CC1CCC1)C(=O)OCc1c(-c2ccc(O[C@H]3CCC[C@H](C(=O)O)C3)cn2)nnn1C [Example 23, (1S,3S)-3-((6-(5-((((cyclobutylmethyl)(methyl)carbamoyl)oxy)methyl)-1-methyl-1H-1,2,3-triazol-4-yl)pyridin-3-yl)oxy)cyclohexane-1-carboxylic acid]	12
CN(CC1CCC1)C(=O)OCc1c(-c2ccc(O[C@H]3CCC[C@H](C(=O)O)C3)c(F)c2)nnn1C [Example 27, (1S,3S)-3-(4-(5-((((cyclobutylmethyl)(methyl)carbamoyl)oxy)methyl)-1-methyl-1H-1,2,3-triazol-4-yl)-2-fluorophenoxy)cyclohexane-1-carboxylic acid]	14
CCC(C)N(C)C(=O)OCc1c(-c2ccc(O[C@H]3CCC[C@H](C(=O)O)C3)cc2)nnn1C (mixture of isomers) [Example 68, (trans)-3-(4-(5-(((sec-butyl(methyl)carbamoyl)oxy)methyl)-1-methyl-1H-1,2,3-triazol-4-yl)phenoxy)cyclohexane-1-carboxylic acid]	320
Cc1nc(-c2nnn(C)c2COC(=O)N2CCCC2CC(C)C)ccc1O[C@H]1CCC[C@H](C(=O)O)C1 (mixture of isomers) [Example 153, (1S,3S)-3-((6-(5-(((2-isobutylpyrrolidine-1-carbonyl)oxy)methyl)-1-methyl-1H-1,2,3-triazol-4-yl)-2-methylpyridin-3-yl)oxy)cyclohexane-1-carboxylic acid]	163

Other lines, results leading:

IC50 [nM]	Structure (SMILES)
231	Cc1nc(-c2nnn(C)c2COC(=O)N2CC(C)C2)ccc1O[C@H]1CCC[C@H](C(=O)O)C1 [Example 156, (1S,3S)-3-((2-methyl-6-(1-methyl-5-(((3-methylazetidine-1-carbonyl)oxy)methyl)-1H-1,2,3-triazol-4-yl)pyridin-3-yl)oxy)cyclohexane-1-carboxylic acid]
53	Cc1nc(-c2nnn(C)c2COC(=O)N(C)C23CC(C2)C3)ccc1O[C@H]1CCC[C@H](C(=O)O)C1 [Example 102, (1S,3S)-3-((6-(5-(((bicyclo[1.1.1]pentan-1-yl(methyl)carbamoyl)oxy)methyl)-1-methyl-1H-1,2,3-triazol-4-yl)-2-methylpyridin-3-yl)oxy)cyclohexane-1-carboxylic acid]
70	Cc1nc(-c2nnn(C)c2COC(=O)N(C)C2(c3ccccc3)CC2)ccc1O[C@H]1CCC[C@H](C(=O)O)C1 [Example 100, (1S,3S)-3-((2-methyl-6-(1-methyl-5-(((methyl(1-phenylcyclopropyl)carbamoyl)oxy)methyl)-1H-1,2,3-triazol-4-yl)pyridin-3-yl)oxy)cyclohexane-1-carboxylic acid]
76	Cc1nc(-c2nnn(C)c2COC(=O)N2CC3(CCC3)C2)ccc1O[C@H]1CCC[C@H](C(=O)O)C1 [Example 134, (1S,3S)-3-((6-(5-(((2-azaspiro[3.3]heptane-2-carbonyl)oxy)methyl)-1-methyl-1H-1,2,3-triazol-4-yl)-2-methylpyridin-3-yl)oxy)cyclohexane-1-carboxylic acid]
17	Cc1nc(-c2nnn(C)c2COC(=O)N(C)CC2CCOCC2)ccc1O[C@H]1CCC[C@H](C(=O)O)C1 [Example 117, (1S,3S)-3-((2-methyl-6-(1-methyl-5-(((methyl((tetrahydro-2H-pyran-4-yl)methyl)carbamoyl)oxy)methyl)-1H-1,2,3-triazol-4-yl)pyridin-3-yl)oxy)cyclohexane-1-carboxylic acid]
809	Cc1nc(-c2nnn(C)c2COC(=O)N(C)Cc2cccnc2)ccc1O[C@H]1CCC[C@H](C(=O)O)C1 [Example 120, (1S,3S)-3-((2-methyl-6-(1-methyl-5-(((methyl(pyridin-3-ylmethyl)carbamoyl)oxy)methyl)-1H-1,2,3-triazol-4-yl)pyridin-3-yl)oxy)cyclohexane-1-carboxylic acid]
